The target in one data set is mAb SH2. Description: Competitive ELISA: inhibition of mAb SH2 binding to immobilized (DimLe^x)16-BSA conjugate 1. On the set-up: species or system mouse. As to conditions: for IC50: DimLe^x-BSA conjugate 1 immobilized (5 μg/mL), SH2 ascites 1:500; for ∆(∆G): RT ln([I1]/[I2]), reference inhibitor DimLe^x 6; for ∆(∆G) / SH2 ∆(∆G): T = 296 K; for SH2 ∆(∆G): reference inhibitor Le^x 7, --- = No inhibition. The procedure: A MaxiSorp NUNC 96-well ELISA microtiter plate was coated with a dilution of the (DimLe^x)16-BSA conjugate 1 (100 μL per well, 5 μg/mL) in a 10 mM PBS solution at pH 7.1. The plate was covered with sealing tape and incubated at 4 °C overnight. The antigen solution was discarded, and the plate was washed (using ELx405 auto plate washer, 5 × 15 s) with a 10 mM PBS buffer at pH 7.3 containing 0.05% Tween 20. In 1.5 mL Eppendorf tubes, 175 μL dilutions of competitors (concentration ranging from 0.632 mg/mL to 2 mg/mL in 10 mM PBS-0.05% Tween 20) were incubated for 1 h at 23 °C (in the dark) with 175 μL of a solution of SH2 ascites (1:500 dilution in 10 mM PBS-0.05% Tween 20). At the same time, the plate was blocked with 0.05% skim milk in PBS (300 μL per well). After 1 h of incubation at 37 °C, the plate was washed with 10 mM PBS-0.05% Tween 20. Each well then received 100 μL of the competitor-mAb mixture. Three wells were used as the blank control in which the competitor-mAb mixture was not added, rather received 100 μL of 10 mM PBS-0.05% Tween 20. The plate was incubated for 3 h at 23 °C (in the dark). The plate was subsequently washed using the plate washer with PBS-0.05% Tween 20. A dilution of commercially available horseradish peroxidase labeled goat anti-mouse antibody (1:5000 in 10 mM PBS-0.05% Tween 20, 100 μL per well) was added to each well. After 1 h of incubation at 23 °C (in the dark), the plate was washed with 10 mM PBS-0.05% Tween 20. A solution of the chromogenic substrate TMB (100 μL per well) was added. After a 10 min incubation period at 23 °C (in the dark), 100 μL of 5% Phosphoric Acid stop solution was added to the wells to quench the reaction. The absorbance values were read at 450 nm employing a PowerWave XS plate reader. All samples were prepared in triplicate. The absorbance values were plotted as the percentage inhibition against an increasing concentration of competitor, calculated using wells containing no competitor as the reference point. The values were fitted to a 4-parameter logistics sigmoidal equation: y = y0 + a/[1 + (x/x0)^b] using Sigma Plot 10.0. The concentration of each analogue required for 50% inhibition (IC50) of Le^x-SH2 binding and the corresponding changes in free energy Δ(ΔG) of binding (kcal·mol^−1) using DimLe^xOPr 6 (Table 1) or Le^xOMe 7 (Table 2) as the reference were calculated.
For orientation: In an ELISA, binding on a coated surface is turned into a signal by an enzyme label.

The test system of the next data set is mAb SH1. To be noted: cited from earlier work; for SH1 ∆(∆G): Le^x-BSA conjugate 4 immobilized, Le^x trisaccharide 7 as reference, --- = No inhibition.
The next data set relates to mAb 1G5F6. On the set-up: method as in PMID 31666308. As to conditions: DimLe^x-BSA conjugate 1 immobilized; Le^x trisaccharide 7 as reference; --- = No inhibition; cited from earlier work.
Setting [1] is: Table 1, read-out: IC50 (concentration of inhibitor required for 50% inhibition).

SMILES strings stand for the structures. Like-named read-outs stand apart in the source and are kept apart here.

The text below walks through data of article PMC7563222, “Recognition of Dimeric Lewis X by Anti-Dimeric Le^x Antibody SH2” (Vaccines, 2020).

In the case of `CCCO[C@@H]1O[C@H](CO)[C@@H](O[C@@H]2O[C@H](CO)[C@H](O)[C@H](O[C@@H]3O[C@H](CO)[C@@H](O[C@@H]4O[C@H](CO)[C@H](O)[C@H](O)[C@H]4O)[C@H](O[C@@H]4O[C@@H](C)[C@@H](O)[C@@H](O)[C@@H]4O)[C@H]3NC(C)=O)[C@H]2O)[C@H](O[C@@H]2O[C@@H](C)[C@@H](O)[C@@H](O)[C@@H]2O)[C@H]1NC(C)=O` [compound 6, DimLe^x propyl hexasaccharide], the IC50 at mAb SH2 (setting [1]) is 503 µM. In the data set on mAb SH2 (Table 1), the “∆(∆G)” value is 0 kcal/mol.
Take `CO[C@@H]1O[C@H](CO)[C@@H](O[C@@H]2O[C@H](CO)[C@H](O)[C@H](O)[C@H]2O)[C@H](O[C@@H]2O[C@@H](C)[C@@H](O)[C@@H](O)[C@@H]2O)[C@H]1NC(C)=O` [compound 7, Le^x methyl glycoside]: the IC50 at mAb SH2 (setting [1]) was 47 µM. In addition, the “∆(∆G)” value in the data set with mAb SH2 (Table 1) was -1.4 kcal/mol. For the same compound, the “SH2 ∆(∆G)” value in the data set on mAb SH2 (Table 2) is 0 kcal/mol. Moreover, the “SH1 ∆(∆G)” value with mAb SH1 is 0 kcal/mol. For the same compound, the “1G5F6 ∆(∆G)” value in the data set with mAb 1G5F6 was 0 kcal/mol.
Consider `CC(=O)NC1C(OC2C(O)C(O)OC(CO)C2O)OC(CO)C(OC2OC(CO)C(O)C(O)C2O)C1OC1OC(C)C(O)C(O)C1O` (stereo not shown) [compound 9, Lex[1,3]Gal, reference compound], for which the IC50 on mAb SH2 (setting [1]) was 529 µM. Moreover, the “∆(∆G)” value with mAb SH2 (Table 1) turned out to be 0.03 kcal/mol.
For `CO[C@@H]1O[C@H](CO)[C@@H](O[C@@H]2O[C@H](CO)[C@H](O)[C@H](O[C@@H]3O[C@H](CO)[C@@H](O)[C@H](O)[C@H]3NC(C)=O)[C@H]2O)[C@H](O[C@@H]2O[C@@H](C)[C@@H](O)[C@@H](O)[C@@H]2O)[C@H]1NC(C)=O` [compound 10, GlcNAc[1,3″]Le^x] the same measures were 18600 µM and 2.1 kcal/mol.
For the compound `CCCCCCO[C@@H]1O[C@H](CO)[C@@H](O[C@@H]2O[C@H](CO)[C@H](O)[C@H](O[C@@H]3O[C@H](CO)[C@@H](O[C@@H]4O[C@H](CO)[C@H](O)[C@H](O)[C@H]4O)[C@H](O)[C@H]3NC(C)=O)[C@H]2O)[C@H](O[C@@H]2O[C@@H](C)[C@@H](O)[C@@H](O)[C@@H]2O)[C@H]1NC(C)=O` [compound 13, LacNAc[1,3″]Lex], in the data set with mAb SH2, the “Inhibition of SH2 binding to (DimLe^x)16-BSA by soluble oligosaccharide (in words)” value (“Inhibition of SH2 binding” below) was “lack of competitive binding”.
Still for that read-out and setting: then `CCCCCO[C@@H]1O[C@H](CO)[C@@H](O[C@@H]2O[C@H](CO)[C@H](O)[C@H](O[C@@H]3O[C@H](CO)[C@@H](O)[C@H](O[C@@H]4O[C@@H](C)[C@@H](O)[C@@H](O)[C@@H]4O)[C@H]3NC(C)=O)[C@H]2O)[C@H](O[C@@H]2O[C@@H](C)[C@@H](O)[C@@H](O)[C@@H]2O)[C@H]1NC(C)=O` [compound 14, Fuc[1,3,]GlcNAc[1,3″]Le^x], with “lack of competitive binding”.
For `CO[C@@H]1O[C@H](CO)[C@@H](O[C@@H]2O[C@H](CO)[C@H](O)[C@H](O)[C@H]2O)[C@H](O[C@@H]2O[C@@H](C)[C@@H](O)[C@@H](O)[C@@H]2O)[C@H]1O` [compound 15, LacLe^x], the “Inhibition of SH2 binding” value with mAb SH2 is “no inhibition”. Also, the IC50 at mAb SH2 (Table 2, read-out: SH2 IC50) was above 1800 µM. Besides, in the data set with mAb SH1, the “SH1 ∆(∆G)” value was 0.2 kcal/mol. Moreover, the “1G5F6 ∆(∆G)” value with mAb 1G5F6 is 2.5 kcal/mol.
For the compound `COC1OC(CO)C(OC2OC(CO)C(O)C(O)C2O)C(OC2OC(C)C(O)C(O)C2O)C1NC(C)=O` (stereo not shown) [compound 16, GlcLe^x], the “Inhibition of SH2 binding” value in the data set with mAb SH2 was “no inhibition”. Further, on mAb SH2 (Table 2, read-out: SH2 IC50), the IC50 is above 1800 µM. In addition, in the data set on mAb SH1 (galactose of Le^x replaced by glucose), the “Binding by SH1 (in words)” value was “total loss of binding”. Also, the “1G5F6 ∆(∆G)” value in the data set on mAb 1G5F6 was 2.7 kcal/mol.
As to `CO[C@@H]1O[C@H](CO)[C@@H](O[C@@H]2O[C@H](CO)[C@H](O)[C@H](O)[C@H]2O)[C@H](O[C@@H]2O[C@@H](C)[C@H](O)[C@@H](O)[C@H]2O)[C@H]1NC(C)=O` [compound 17, RhaLe^x], at mAb SH2 (Table 2, read-out: SH2 IC50), the IC50 was 827 µM. Besides, the “SH2 ∆(∆G)” value with mAb SH2 (Table 2) amounted to 1.7 kcal/mol. The “SH1 ∆(∆G)” value in the data set on mAb SH1 was 1.1 kcal/mol. Further, the “1G5F6 ∆(∆G)” value in the data set on mAb 1G5F6 was 1.6 kcal/mol.
Regarding `CO[C@@H]1O[C@H](CO)[C@@H](O[C@@H]2O[C@H](CO)[C@H](O)[C@H](O)[C@H]2O)[C@H](O[C@@H]2O[C@@H](C)[C@H](O)[C@@H](O)[C@H]2O)[C@H]1O` [compound 18, RhaLac], the “Inhibition of SH2 binding” value with mAb SH2 is on record as “no inhibition”. At mAb SH2 (Table 2, read-out: SH2 IC50), the IC50 is above 1800 µM. In addition, in the data set on mAb SH1, the “SH1 ∆(∆G)” value is 1.5 kcal/mol. Further, the “1G5F6 ∆(∆G)” value in the data set on mAb 1G5F6 was 3.2 kcal/mol.
Turning to `CO[C@@H]1O[C@H](CO)[C@@H](O[C@@H]2O[C@H](CO)[C@H](OC)[C@H](O)[C@H]2O)[C@H](O[C@@H]2O[C@@H](C)[C@@H](O)[C@@H](O)[C@@H]2O)[C@H]1O` [compound 19], the IC50 on mAb SH2 (Table 2, read-out: SH2 IC50) came out at 148 µM. The “SH2 ∆(∆G)” value in the data set with mAb SH2 (Table 2) worked out at 0.7 kcal/mol.
For the compound `CO[C@@H]1O[C@H](CO)[C@@H](O[C@@H]2O[C@H](CO)C[C@H](O)[C@H]2O)[C@H](O[C@@H]2O[C@@H](C)[C@@H](O)[C@@H](O)[C@@H]2O)[C@H]1O` [compound 20, 4″-HLe^x], the IC50 on mAb SH2 (Table 2, read-out: SH2 IC50) was 74 µM. The “SH2 ∆(∆G)” value in the data set on mAb SH2 (Table 2) was found to be 0.3 kcal/mol. Besides, in the data set with mAb SH1, the “SH1 ∆(∆G)” value is 1.3 kcal/mol. In addition, in the data set with mAb 1G5F6, the “1G5F6 ∆(∆G)” value is 0.3 kcal/mol.
Regarding `CO[C@@H]1O[C@H](CO)[C@@H](O[C@@H]2O[C@H](CO)[C@H](Cl)[C@H](O)[C@H]2O)[C@H](O[C@@H]2O[C@@H](C)[C@@H](O)[C@@H](O)[C@@H]2O)[C@H]1O` [compound 21, 4″-ClLe^x], the IC50 at mAb SH2 (Table 2, read-out: SH2 IC50) came out at 19 µM. In addition, in the data set with mAb SH2 (Table 2), the “SH2 ∆(∆G)” value was -0.5 kcal/mol. Besides, the “SH1 ∆(∆G)” value in the data set with mAb SH1 is 1.6 kcal/mol. In the data set on mAb 1G5F6, the “1G5F6 ∆(∆G)” value was 0.3 kcal/mol.
Take `CO[C@@H]1O[C@H](CO)[C@@H](O[C@@H]2O[C@H](CO)[C@H](F)[C@H](O)[C@H]2O)[C@H](O[C@@H]2O[C@@H](C)[C@@H](O)[C@@H](O)[C@@H]2O)[C@H]1O` [compound 22, 4″-FLe^x]: at mAb SH2 (Table 2, read-out: SH2 IC50), the IC50 is 17 µM. For the same compound, in the data set on mAb SH2 (Table 2), the “SH2 ∆(∆G)” value is -0.6 kcal/mol. Moreover, in the data set on mAb SH1, the “SH1 ∆(∆G)” value is 2.1 kcal/mol. Further, in the data set with mAb 1G5F6, the “1G5F6 ∆(∆G)” value is -0.1 kcal/mol.
